# Measurements reported in ChEMBL document CHEMBL1125786, “Synthesis and biological evaluation of hydroxamate-based iron chelators” (1991).
# Assays:
# Type in all cases: functional
# [1] = system: Rattus norvegicus; experiment: Total iron output induced by the compound in non-iron-overloaded bile duct cannulated rat(Treated-control), after 24 hours of sc administration.
# [2] = system: Rattus norvegicus; experiment: Total iron output induced by the compound in bile (non-iron-overloaded bile duct cannulated rat), after 21 hours of sc administration.
# [3] = system: Rattus norvegicus; experiment: Total iron output induced by the compound in bile (non-iron-overloaded bile duct cannulated rat), after 12 hours of po administration.
# [4] = system: Rattus norvegicus; experiment: Total iron output induced by the compound in non-iron-overloaded bile duct cannulated rat(Treated-control), after 24 hours of po administration.
# [5] = system: Rattus norvegicus; experiment: Total iron output induced by the compound in bile (non-iron-overloaded bile duct cannulated rat), after 21 hours of po administration.
# [6] = system: Rattus norvegicus; experiment: Total iron output induced by the compound in bile (non-iron-overloaded bile duct cannulated rat), after 9 hours of po administration.
# [7] = system: Rattus norvegicus; experiment: Total iron output induced by the compound in bile (non-iron-overloaded bile duct cannulated rat), after 9 hours of sc administration.
# [8] = system: Rattus norvegicus; experiment: Total iron output induced by the compound in non-iron-overloaded bile duct cannulated rat, after 24 hours of po administration.
# [9] = system: Rattus norvegicus; experiment: Total iron output induced by the compound in bile (non-iron-overloaded bile duct cannulated rat), after 3 hours of sc administration.
# [10] = system: Rattus norvegicus; experiment: Total iron output induced by the compound in non-iron-overloaded bile duct cannulated rat, after 24 hours of sc administration.
# [11] = system: Rattus norvegicus; experiment: Total iron output induced by the compound in bile (non-iron-overloaded bile duct cannulated rat), after 6 hours of po administration.
# [12] = system: Rattus norvegicus; experiment: Total iron output induced by the compound in bile (non-iron-overloaded bile duct cannulated rat), after 12 hours of sc administration.
# [13] = system: Rattus norvegicus; experiment: Total iron output induced by the compound in bile (non-iron-overloaded bile duct cannulated rat), after 18 hours of sc administration.
# [14] = system: Rattus norvegicus; experiment: Total iron output induced by the compound in bile (non-iron-overloaded bile duct cannulated rat), after 24 hours of po administration.
# [15] = system: Rattus norvegicus; experiment: Total iron output induced by the compound in urine (non-iron-overloaded bile duct cannulated rat), after 24 hours of sc administration.
# [16] = system: Rattus norvegicus; experiment: Total iron output induced by the compound in bile (non-iron-overloaded bile duct cannulated rat), after 24 hours of sc administration.
# [17] = system: Rattus norvegicus; experiment: Total iron output induced by the compound in bile (non-iron-overloaded bile duct cannulated rat), after 3 hours of po administration.
# [18] = system: Rattus norvegicus; experiment: Total iron output induced by the compound in bile (non-iron-overloaded bile duct cannulated rat), after 15 hours of sc administration.
# [19] = system: Rattus norvegicus; experiment: Total iron output induced by the compound in bile (non-iron-overloaded bile duct cannulated rat), after 18 hours of po administration.
# [20] = system: Rattus norvegicus; experiment: Total iron output induced by the compound in bile (non-iron-overloaded bile duct cannulated rat), after 15 hours of po administration.
# [21] = system: Rattus norvegicus; experiment: Total iron output induced by the compound in bile (non-iron-overloaded bile duct cannulated rat), after 6 hours of sc administration.
# [22] = system: Rattus norvegicus; experiment: Total iron output induced by the compound in urine (non-iron-overloaded bile duct cannulated rat), after 24 hours of po administration.
SMILES,Iron output [1],Iron output [2],Iron output [3],Iron output [4],Iron output [5],Iron output [6],Iron output [7],Iron output [8],Iron output [9],Iron output [10],Iron output [11],Iron output [12],Iron output [13],Iron output [14],Iron output [15],Iron output [16],Iron output [17],Iron output [18],Iron output [19],Iron output [20],other results
COCCOCCOCCN(O)C(=O)CCC(=O)NCCCCCN(O)C(=O)CCC(=O)NCCCCCN(O)C(=O)COCCOCCOC,519.8,534.2,59.7,34.6,81.3,42.5,362.6,99.8,106.9,585,31.7,467,526,86.6,45.3,539.7,16.3,509.1,74.6,67.9,Iron output [21]: 244.4; Iron output [22]: 13.3
COCCOCCOCCN(O)C(=O)CCC(=O)NCCCCCN(O)C(=O)CCC(=O)NCCCCCN(O)C(C)=O,602.7,585.9,67.5,43.5,89,56.8,374.6,108.7,117.3,667.9,42.8,456.1,561.2,93.7,68.4,599.5,20.2,519.6,83.8,76.5,Iron output [21]: 262.5; Iron output [22]: 15
CC(=O)N(O)CCCCCNC(=O)CCC(=O)N(O)CCCCCNC(=O)CCC(=O)N(O)CCCCCN [DEFEROXAMINE],212.4,219.8,97.1,86.3,128.7,76.8,152.8,151.5,43.6,277.6,43.9,173.9,210.7,135,49.2,228.4,14.7,196.2,119.8,110.8,Iron output [21]: 105.9; Iron output [22]: 16.5
